The experiment concerns the target T1, human FSH receptor (Homo sapiens, UniProt P23945).
T1 construct: expressed in transfected cells
T1 sequence (P23945 18-695): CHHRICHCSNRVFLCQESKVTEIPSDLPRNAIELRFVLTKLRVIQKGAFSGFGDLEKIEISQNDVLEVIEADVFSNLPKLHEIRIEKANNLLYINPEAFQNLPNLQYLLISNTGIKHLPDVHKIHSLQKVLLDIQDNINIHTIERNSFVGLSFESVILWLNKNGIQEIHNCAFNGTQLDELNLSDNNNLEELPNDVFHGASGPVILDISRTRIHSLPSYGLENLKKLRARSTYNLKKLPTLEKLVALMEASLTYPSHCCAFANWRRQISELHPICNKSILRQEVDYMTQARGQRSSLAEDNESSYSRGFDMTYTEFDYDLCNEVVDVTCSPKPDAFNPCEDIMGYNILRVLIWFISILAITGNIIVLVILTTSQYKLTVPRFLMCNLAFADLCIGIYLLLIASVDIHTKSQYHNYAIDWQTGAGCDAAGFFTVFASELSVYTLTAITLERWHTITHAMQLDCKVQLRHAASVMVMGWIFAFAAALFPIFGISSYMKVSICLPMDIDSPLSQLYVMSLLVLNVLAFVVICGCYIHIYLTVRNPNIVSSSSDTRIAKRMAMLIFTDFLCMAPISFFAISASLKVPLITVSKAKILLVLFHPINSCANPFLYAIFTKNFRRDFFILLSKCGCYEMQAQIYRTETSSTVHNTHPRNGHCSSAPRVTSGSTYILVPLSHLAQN
The experiment is described as follows: hFSHRago (CHO luc): agonistic activity at the human FSH receptor expressed in CHO cells, CRE-luciferase reporter. In kind it is cell-based. The following applies: CHO cells stably transfected with human FSH receptor and CRE/luciferase reporter; 4 hours of incubation.
Compound `COc1cc2c(cc1OC(C)C)-c1c(C3CCCC3)cc(C(=O)NC(C)(C)C)n1CC2` [Example 50, 1-Cyclopentyl-9-isopropoxy-8-methoxy-5,6-dihydro-pyrrolo[2,1-α]isoquinoline-3-tert-butylamide] yielded a concentration giving a half-maximal response (EC50) of 220 nM. As for `COc1cc2c(cc1NC(C)C)-c1c(-c3cccs3)cc(C(=O)N(C)C(C)(C)C)n1CC2` [Example 51, 9-Isopropylamino-8-methoxy-1-thiophen-2-yl-5,6-dihydro-pyrrolo[2,1-α]isoquinoline-3-carboxylic acid tert-butyl-methyl-amide], the figure is 4.2 nM. `COc1cc2c(cc1O)-c1c(-c3cccs3)cc(C(=O)N(C)C(C)(C)C)n1CC2` [Example 52, 9-Hydroxy-8-methoxy-1-thiophen-2-yl-5,6-dihydro-pyrrolo[2,1-α]isoquinoline-3-carboxylic acid tert-butyl-methyl-amide] returned an EC50 of 356 nM. With `COc1cc2c(cc1N1CCN(C(C)=O)CC1)-c1c(-c3cccs3)cc(C(=O)N(C)C(C)(C)C)n1CC2` [Example 53, 9-(4-Acetyl-piperazin-1-yl)-8-methoxy-1-thiophen-2-yl-5,6-dihydro-pyrrolo[2,1-α]isoquinoline-3-carboxylic acid tert-butyl-methyl-amide], the EC50 is 678 nM. As for `COc1cc2c(cc1N1CCN(C)CC1)-c1c(-c3cccs3)cc(C(=O)N(C)C(C)(C)C)n1CC2` [Example 54, 8-Methoxy-9-(4-methyl-piperazin-1-yl)-1-thiophen-2-yl-5,6-dihydro-pyrrolo[2,1-α]isoquinoline-3-carboxylic acid tert-butyl-methyl-amide], the EC50 was 455 nM. As for `COc1cc2c(cc1-c1cn[nH]c1)-c1c(-c3cccs3)cc(C(=O)N(C)C(C)(C)C)n1CC2` [Example 55, 8-Methoxy-9-(1H-pyrazol-4-yl)-1-thiophen-2-yl-5,6-dihydro-pyrrolo[2,1-α]isoquinoline-3-carboxylic acid tert-butyl-methyl-amide], the figure is 1.1 nM; as for `COc1cc2c(cc1N1CCOCC1)-c1c(-c3cccs3)cc(C(=O)N(C)C(C)(C)C)n1CC2` [Example 56, 8-Methoxy-9-morpholin-4-yl-1-thiophen-2-yl-5,6-dihydro-pyrrolo[2,1-α]isoquinoline-3-carboxylic acid tert-butyl-methyl-amide], 15.7 nM. `COc1cc2c(cc1N1CCOCC1)-c1c(-c3cccnc3)cc(C(=O)N(C)C(C)(C)C)n1CC2` [Example 57, 8-Methoxy-9-morpholin-4-yl-1-pyridin-3-yl-5,6-dihydro-pyrrolo[2,1-α]isoquinoline-3-carboxylic acid tert-butyl-methyl-amide; trifluoro acetic acid]: the EC50 was determined as 276 nM. Compound `COc1cc2c(cc1C=C(C)C)-c1c(-c3cccs3)cc(C(=O)N(C)C(C)(C)C)n1CC2` [Example 58b, 8-Methoxy-9-(2-methyl-propenyl)-1-thiophen-2-yl-5,6-dihydro-pyrrolo[2,1-α]isoquinoline-3-carboxylic acid tert-butyl-methyl-amide] came in with an EC50 of 0.7 nM. Take `COc1cc2c(cc1CC(C)C)-c1c(-c3cccs3)cc(C(=O)N(C)C(C)(C)C)n1CC2` [Example 58c, 9-Isobutyl-8-methoxy-1-thiophen-2-yl-5,6-dihydro-pyrrolo[2,1-α]isoquinoline-3-carboxylic acid tert-butyl-methyl-amide]: the EC50 turned out to be 4.3 nM. `COc1cc2c(cc1C=C(C)C)-c1c(-c3nccs3)cc(C(=O)N(C)C(C)(C)C)n1CC2` [Example 59, 8-Methoxy-9-(2-methyl-propenyl)-1-thiazol-2-yl-5,6-dihydro-pyrrolo[2,1-α]isoquinoline-3-carboxylic acid tert-butyl-methyl-amide] displayed an EC50 of 2.6 nM.

Compound `COc1cc2c(cc1CC(C)C)-c1c(-c3nccs3)cc(C(=O)N(C)C(C)(C)C)n1CC2` [Example 60, 9-Isobutyl-8-methoxy-1-thiazol-2-yl-5,6-dihydro-pyrrolo[2,1-α]isoquinoline-3-carboxylic acid tert-butyl-methyl-amide] returned an EC50 of 19 nM. The compound `CC(C)Cc1cc2c(cc1O)CCn1c(C(=O)N(C)C(C)(C)C)cc(-c3cccs3)c1-2` [Example 61, 8-Hydroxy-9-isobutyl-1-thiophen-2-yl-5,6-dihydro-pyrrolo[2,1-α]isoquinoline-3-carboxylic acid tert-butyl-methyl-amide] registered an EC50 of 5.2 nM. `COc1cc2c(cc1NC(=O)C(C)C)-c1c(-c3cccs3)cc(C(=O)N3CCCC3(C)C)n1CC2` [Example 62, N-[3-(2,2-Dimethyl-pyrrolidine-1-carbonyl)-8-methoxy-1-thiophen-2-yl-5,6-dihydro-pyrrolo[2,1-α]isoquinolin-9-yl]-isobutyramide] displayed an EC50 of 3.7 nM. `CCOC(=O)COc1cc2c(cc1OC)CCn1c(C(=O)N(C)C(C)(C)C)cc(-c3cccs3)c1-2` [Example 63, [3-(tert-Butyl-methyl-carbamoyl)-8-methoxy-1-thiophen-2-yl-5,6-dihydro-pyrrolo[2,1-α]isoquinolin-9-yloxy]-acetic acid ethyl ester] yielded an EC50 of 252 nM. In the case of `CNC(=O)COc1cc2c(cc1OC)CCn1c(C(=O)N(C)C(C)(C)C)cc(-c3cccs3)c1-2` [Example 64, 8-Methoxy-9-methylcarbamoylmethoxy-1-thiophen-2-yl-5,6-dihydro-pyrrolo[2,1-α]isoquinoline-3-carboxylic acid tert-butyl-methyl-amide], the EC50 came to 3.1 nM. The compound `COc1cc2c(cc1OCCOC1CCCCO1)-c1c(-c3cccs3)cc(C(=O)N(C)C(C)(C)C)n1CC2` (stereo not drawn) [Example 65c, 8-Methoxy-9-[2-(tetrahydro-pyran-2-yloxy)-ethoxy]-1-thiophen-2-yl-5,6-dihydro-pyrrolo[2,1-α]isoquinoline-3-carboxylic acid tert-butyl-methyl-amide] had an EC50 of 102 nM.

In turn, `COc1cc2c(cc1OCCO)-c1c(-c3cccs3)cc(C(=O)N(C)C(C)(C)C)n1CC2` [Example 65d, 9-(2-Hydroxy-ethoxy)-8-methoxy-1-thiophen-2-yl-5,6-dihydro-pyrrolo[2,1-α]iso-quinoline-3-carboxylic acid tert-butyl-methyl-amide] had an EC50 of 1.3 nM.

As to `COc1cc2c(cc1OCCOS(C)(=O)=O)-c1c(-c3cccs3)cc(C(=O)N(C)C(C)(C)C)n1CC2` [Example 65e, Methanesulfonic acid 2-[3-(tert-butyl-methyl-carbamoyl)-8-methoxy-1-thiophen-2-yl-5,6-dihydro-pyrrolo[2,1-α]isoquinolin-9-yloxy]-ethyl ester], a half-maximal response (EC50) required 15 nM. `COc1cc2c(cc1OCCN=[N+]=[N-])-c1c(-c3cccs3)cc(C(=O)N(C)C(C)(C)C)n1CC2` [Example 65f, 9-(2-Azido-ethoxy)-8-methoxy-1-thiophen-2-yl-5,6-dihydro-pyrrolo[2,1-α]isoquinoline-3-carboxylic acid tert-butyl-methyl-amide] registered an EC50 of 7.1 nM. `COC(=O)NCCOc1cc2c(cc1OC)CCn1c(C(=O)N(C)C(C)(C)C)cc(-c3cccs3)c1-2` [Example 66, {2-[3-(tert-Butyl-methyl-carbamoyl)-8-methoxy-1-thiophen-2-yl-5,6-dihydro-pyrrolo[2,1-α]isoquinolin-9-yloxy]-ethyl}-carbamic acid methyl ester]: the EC50 came to 31.3 nM. The compound `COc1cc2c(cc1OCCNC(C)=O)-c1c(-c3cccs3)cc(C(=O)N(C)C(C)(C)C)n1CC2` [Example 67, 9-(2-Acetylamino-ethoxy)-8-methoxy-1-thiophen-2-yl-5,6-dihydro-pyrrolo[2,1-α]isoquinoline-3-carboxylic acid tert-butyl-methyl-amide] came in with an EC50 of 36.5 nM. Next, `COc1cc2c(cc1OCCNS(C)(=O)=O)-c1c(-c3cccs3)cc(C(=O)N(C)C(C)(C)C)n1CC2` [Example 68, 9-(2-Methanesulfonylamino-ethoxy)-8-methoxy-1-thiophen-2-yl-5,6-dihydro-pyrrolo[2,1-α]isoquinoline-3-carboxylic acid tert-butyl-methyl-amide]: 16 nM. In the case of `COc1cc2c(cc1OC1CCCCO1)-c1c(-c3cccs3)cc(C(=O)N(C)C(C)(C)C)n1CC2` (stereo not drawn) [Example 69, 8-Methoxy-9-(tetrahydro-pyran-2-yloxy)-1-thiophen-2-yl-5,6-dihydro-pyrrolo[2,1-α]isoquinoline-3-carboxylic acid tert-butyl-methyl-amide], the EC50 was 6.9 nM.

In turn, `COc1cc2c(cc1OCCCOC1CCCCO1)-c1c(-c3cccs3)cc(C(=O)N(C)C(C)(C)C)n1CC2` (stereo not drawn) [Example 70c, 8-Methoxy-9-[3-(tetrahydro-pyran-2-yloxy)-propoxy]-1-thiophen-2-yl-5,6-dihydro-pyrrolo[2,1-α]isoquinoline-3-carboxylic acid tert-butyl-methyl-amide] yielded an EC50 of 155 nM.

Compound `COc1cc2c(cc1OCCCO)-c1c(-c3cccs3)cc(C(=O)N(C)C(C)(C)C)n1CC2` [Example 70d, 9-(3-Hydroxy-propoxy)-8-methoxy-1-thiophen-2-yl-5,6-dihydro-pyrrolo[2,1-α]iso-quinoline-3-carboxylic acid tert-butyl-methyl-amide] registered an EC50 of 1.3 nM.

The EC50 is the midpoint of the concentration-response curve.

The values are drawn from US8394789B2, “(Dihydro)pyrrolo[2,1-α]isoquinolines” (MSD Oss B.V., priority 2008, dated 2013).
